Assay results taken from US10526309B2, “Pan-TAM inhibitors and Mer/Axl dual inhibitors” (The University of North Carolina at Chapel Hill, priority 2015, dated 2020).
Like-named read-outs stand apart in the source and are kept apart here.

Legend:
MDA-MB-231 cells = assay: Invasion of MDA-MB-231 multicellular tumor spheroids in 3D collagen matrix; assay type: cell-based; settings: MDA-MB-231 spheroids, 24 hours in collagen culture; in comparison to UNC1653, UNC2025, UNC2250
Description: The invasion of triple negative highly aggressive breast adenocarcinoma cells (MDA-MB-231) cultured as multicellular tumor spheroids (MTSs) in a 3D collagen matrix was examined.

Axl = target: T1, Axl (Homo sapiens, UniProt P30530); assay: Axl kinase inhibition IC50; assay type: biochemical
T1 sequence (P30530 26-894): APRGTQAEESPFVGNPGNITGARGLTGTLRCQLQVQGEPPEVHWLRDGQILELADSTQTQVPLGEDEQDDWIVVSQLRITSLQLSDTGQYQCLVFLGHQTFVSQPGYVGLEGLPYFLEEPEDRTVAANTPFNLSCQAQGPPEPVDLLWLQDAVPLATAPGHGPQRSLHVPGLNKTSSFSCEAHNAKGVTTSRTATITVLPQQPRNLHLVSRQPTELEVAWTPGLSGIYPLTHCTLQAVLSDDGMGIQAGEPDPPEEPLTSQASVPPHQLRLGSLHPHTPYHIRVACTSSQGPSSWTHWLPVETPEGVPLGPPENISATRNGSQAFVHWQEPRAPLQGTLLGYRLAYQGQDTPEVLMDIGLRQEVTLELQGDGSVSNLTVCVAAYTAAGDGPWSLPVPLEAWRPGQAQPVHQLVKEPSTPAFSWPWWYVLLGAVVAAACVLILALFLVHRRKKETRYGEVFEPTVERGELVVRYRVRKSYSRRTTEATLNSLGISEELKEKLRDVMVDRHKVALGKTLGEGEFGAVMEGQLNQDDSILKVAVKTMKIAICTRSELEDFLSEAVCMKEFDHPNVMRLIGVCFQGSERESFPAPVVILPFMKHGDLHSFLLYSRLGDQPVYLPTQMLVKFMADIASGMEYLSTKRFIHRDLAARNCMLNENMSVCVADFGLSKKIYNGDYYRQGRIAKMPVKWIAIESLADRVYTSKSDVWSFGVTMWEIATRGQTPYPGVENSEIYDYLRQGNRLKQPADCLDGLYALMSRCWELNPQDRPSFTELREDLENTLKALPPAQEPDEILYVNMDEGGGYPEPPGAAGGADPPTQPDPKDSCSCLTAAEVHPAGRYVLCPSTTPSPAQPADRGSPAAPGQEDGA

Mer = target: T2, Mer (Homo sapiens, UniProt Q12866); assay: Mer kinase inhibition IC50; assay type: biochemical
T2 sequence (Q12866 21-999): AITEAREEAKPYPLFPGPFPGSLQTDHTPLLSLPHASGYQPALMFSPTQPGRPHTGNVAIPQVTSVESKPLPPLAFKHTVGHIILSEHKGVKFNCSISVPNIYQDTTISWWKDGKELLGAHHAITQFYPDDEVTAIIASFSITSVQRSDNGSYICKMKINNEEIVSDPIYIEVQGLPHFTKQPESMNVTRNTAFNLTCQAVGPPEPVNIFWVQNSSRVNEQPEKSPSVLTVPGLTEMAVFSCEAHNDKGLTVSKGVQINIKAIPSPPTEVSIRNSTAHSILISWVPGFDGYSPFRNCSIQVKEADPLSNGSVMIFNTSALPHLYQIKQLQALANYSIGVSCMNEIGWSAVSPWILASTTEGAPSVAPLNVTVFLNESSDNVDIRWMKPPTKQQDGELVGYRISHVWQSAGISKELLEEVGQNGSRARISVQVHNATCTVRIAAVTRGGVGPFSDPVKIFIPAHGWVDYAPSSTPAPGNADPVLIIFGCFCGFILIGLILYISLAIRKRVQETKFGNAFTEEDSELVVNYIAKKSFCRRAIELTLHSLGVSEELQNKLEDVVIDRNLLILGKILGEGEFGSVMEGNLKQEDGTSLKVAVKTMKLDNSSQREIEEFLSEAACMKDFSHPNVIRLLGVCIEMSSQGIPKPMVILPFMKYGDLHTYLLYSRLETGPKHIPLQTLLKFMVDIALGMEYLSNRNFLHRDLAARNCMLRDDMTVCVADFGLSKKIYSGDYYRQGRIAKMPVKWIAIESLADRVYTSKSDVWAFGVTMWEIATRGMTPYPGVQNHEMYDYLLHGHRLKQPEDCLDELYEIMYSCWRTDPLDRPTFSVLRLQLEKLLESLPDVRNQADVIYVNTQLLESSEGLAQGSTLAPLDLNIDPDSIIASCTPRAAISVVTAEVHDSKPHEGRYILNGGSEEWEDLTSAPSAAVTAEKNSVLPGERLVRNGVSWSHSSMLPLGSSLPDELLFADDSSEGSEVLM

FLT3 = target: T3, FLT3 (Homo sapiens, UniProt P36888); assay: FLT3 kinase inhibition IC50; assay type: biochemical; settings: Example 6
T3 sequence (P36888 27-993): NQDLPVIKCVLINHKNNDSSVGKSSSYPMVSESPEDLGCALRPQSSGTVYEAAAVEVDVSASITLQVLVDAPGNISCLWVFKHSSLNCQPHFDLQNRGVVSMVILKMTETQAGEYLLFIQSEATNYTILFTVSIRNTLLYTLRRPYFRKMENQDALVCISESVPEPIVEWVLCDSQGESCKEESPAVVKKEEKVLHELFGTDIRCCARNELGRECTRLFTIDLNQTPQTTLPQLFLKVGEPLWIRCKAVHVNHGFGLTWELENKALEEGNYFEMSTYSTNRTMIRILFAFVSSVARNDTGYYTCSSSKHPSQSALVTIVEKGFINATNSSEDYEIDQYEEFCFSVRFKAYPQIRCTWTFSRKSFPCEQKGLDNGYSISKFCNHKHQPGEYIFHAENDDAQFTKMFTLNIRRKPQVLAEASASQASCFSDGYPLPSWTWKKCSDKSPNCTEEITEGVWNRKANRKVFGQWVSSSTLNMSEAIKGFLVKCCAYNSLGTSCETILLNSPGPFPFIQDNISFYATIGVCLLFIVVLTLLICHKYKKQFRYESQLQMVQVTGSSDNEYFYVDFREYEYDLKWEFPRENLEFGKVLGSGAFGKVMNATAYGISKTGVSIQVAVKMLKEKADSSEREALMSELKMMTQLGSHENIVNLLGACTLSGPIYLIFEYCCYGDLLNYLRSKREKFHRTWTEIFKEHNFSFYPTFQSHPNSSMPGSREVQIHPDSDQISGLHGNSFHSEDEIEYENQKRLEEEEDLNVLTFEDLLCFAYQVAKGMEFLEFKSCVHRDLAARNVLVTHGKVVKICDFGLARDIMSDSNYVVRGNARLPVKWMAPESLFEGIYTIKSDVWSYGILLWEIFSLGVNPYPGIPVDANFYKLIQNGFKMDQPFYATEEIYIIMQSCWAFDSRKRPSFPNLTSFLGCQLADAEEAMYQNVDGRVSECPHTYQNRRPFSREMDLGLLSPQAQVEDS

O[C@H]1CC[C@H](Nc2nc(Nc3ccccc3)ncc2-c2ccc(CN3CCCC3)cn2)CC1 [UNC4198A]
levels of invasion (MDA-MB-231 cells): decreased levels of invasion
IC50 (Axl; Example 6): 5.5 nM
IC50 (Axl; Table 1): < 10 nM
IC50 (Mer; Example 6, read-out: MerTK IC50): 0.98 nM
IC50 (Mer; Table 1, read-out: Mer IC50): < 10 nM
IC50 (FLT3): 0.76 nM
